The target of one assay is T1, HDAC6 human recombinant (Homo sapiens, UniProt Q9UBN7).
T1 construct: purchased Calbiochem 382180
T1 sequence (Q9UBN7 1-1215): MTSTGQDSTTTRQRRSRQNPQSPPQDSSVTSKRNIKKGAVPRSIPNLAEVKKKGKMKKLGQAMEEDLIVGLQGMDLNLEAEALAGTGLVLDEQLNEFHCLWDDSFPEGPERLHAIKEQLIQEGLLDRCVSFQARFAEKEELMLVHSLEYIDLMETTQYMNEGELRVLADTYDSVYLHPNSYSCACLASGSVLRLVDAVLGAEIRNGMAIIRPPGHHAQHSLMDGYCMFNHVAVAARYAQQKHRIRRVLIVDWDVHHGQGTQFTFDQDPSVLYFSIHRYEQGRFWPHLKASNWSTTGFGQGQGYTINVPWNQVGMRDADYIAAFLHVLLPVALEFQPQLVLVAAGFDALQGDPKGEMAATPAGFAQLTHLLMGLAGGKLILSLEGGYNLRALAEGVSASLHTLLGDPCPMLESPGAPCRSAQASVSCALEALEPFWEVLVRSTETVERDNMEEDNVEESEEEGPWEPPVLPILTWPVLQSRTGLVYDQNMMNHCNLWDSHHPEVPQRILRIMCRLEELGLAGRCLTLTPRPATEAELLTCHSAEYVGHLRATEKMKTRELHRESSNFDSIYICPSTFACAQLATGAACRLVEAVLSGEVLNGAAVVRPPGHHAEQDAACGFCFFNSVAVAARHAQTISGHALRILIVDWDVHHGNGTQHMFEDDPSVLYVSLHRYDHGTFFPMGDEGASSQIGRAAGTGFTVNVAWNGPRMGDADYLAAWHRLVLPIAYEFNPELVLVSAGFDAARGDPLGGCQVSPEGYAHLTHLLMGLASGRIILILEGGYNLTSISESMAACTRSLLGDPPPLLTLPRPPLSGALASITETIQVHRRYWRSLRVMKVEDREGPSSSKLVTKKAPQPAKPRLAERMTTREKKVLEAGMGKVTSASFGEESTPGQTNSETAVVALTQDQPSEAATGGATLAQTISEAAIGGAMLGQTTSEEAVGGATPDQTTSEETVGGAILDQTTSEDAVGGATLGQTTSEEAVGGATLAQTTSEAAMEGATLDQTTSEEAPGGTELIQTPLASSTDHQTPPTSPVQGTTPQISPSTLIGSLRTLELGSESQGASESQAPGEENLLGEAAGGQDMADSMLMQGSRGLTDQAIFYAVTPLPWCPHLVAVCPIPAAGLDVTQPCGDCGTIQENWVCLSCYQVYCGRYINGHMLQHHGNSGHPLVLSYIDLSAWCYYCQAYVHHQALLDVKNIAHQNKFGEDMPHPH
Description: HDAC enzyme activity inhibition (in vitro), HDAC6 assay. The following applies: samples at 0.1, 1, 10, 100 and 1000 nM; 37° C. 60 minutes; fluorescence Ex 390, Em 460; read-out: HDAC6 IC50. It is filed as biochemical. The method, boiled down:
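HDAC6 human recombinant enzyme with fluorimetric substrate; […]. Reaction 60 min at 37° C, then developer 30 min at 37° C; fluorescence read at Ex 390/Em 460.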

The target in another assay is T2, HDAC1 (Homo sapiens, UniProt Q13547).
T2 construct: purchased Enzolifesciences BML-AK511
The assay can be described thus: HDAC enzyme activity inhibition (in vitro), HDAC1 Fluorimetric Drug Discovery Assay Kit. It counts as biochemical. The following applies: samples at 100, 1000 and 10000 nM; 37° C. 60 minutes; fluorescence Ex 390, Em 460; read-out: HDAC1 IC50. The method, boiled down: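 Compounds at 100, 1000, 10000 nM (HDAC1) or 0.1, 1, 10, 100, 1000 nM (HDAC6); 37° C, 60 min; developer, 37° C, 30 min; fluorescence Ex 390/Em 460.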

Molecules are shown by their SMILES.

18 compounds from patent US20230092890A1, “1, 3, 4-Oxadiazole derivative compounds as histone deacetylase 6 inhibitor, and the pharmaceutical composition comprising the same” (Chong Kun Dang Pharmaceutical Corp., priority 2019, published 2023) can be followed below.

T2 sequence (Q13547 whole entry): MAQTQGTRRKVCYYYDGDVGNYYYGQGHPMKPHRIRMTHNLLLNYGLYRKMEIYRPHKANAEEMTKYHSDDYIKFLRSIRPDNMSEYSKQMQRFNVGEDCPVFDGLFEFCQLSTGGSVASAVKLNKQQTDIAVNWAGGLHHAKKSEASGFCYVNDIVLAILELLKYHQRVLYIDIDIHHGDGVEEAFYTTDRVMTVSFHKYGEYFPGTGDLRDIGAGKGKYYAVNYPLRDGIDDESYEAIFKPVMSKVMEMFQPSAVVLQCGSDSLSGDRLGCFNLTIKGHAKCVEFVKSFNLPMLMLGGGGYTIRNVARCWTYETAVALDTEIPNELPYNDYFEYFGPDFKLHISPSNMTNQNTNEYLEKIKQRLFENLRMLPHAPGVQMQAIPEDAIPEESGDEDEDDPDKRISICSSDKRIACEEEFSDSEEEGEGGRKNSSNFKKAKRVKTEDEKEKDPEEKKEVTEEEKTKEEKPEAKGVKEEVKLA

On to `CN1CCC(n2c(=O)n(Cc3ccc(-c4nnc(C(F)F)o4)cn3)c3ccc(-c4ccoc4)cc32)CC1` [Compound 137, 1-((5-(5-(difluoromethyl)-1,3,4-oxadiazole-2-yl)pyridine-2-yl)methyl)-5-(furan-3-yl)-3-(1-methylpiperidine-4-yl)-1,3-dihydro-2H-benzo[d]imidazole-2-one], for which the IC50 at HDAC6 human recombinant is 19 nM; at HDAC1 it was above 10 µM.
Take `CN1CCC(n2c(=O)n(Cc3ccc(-c4nnc(C(F)F)o4)cn3)c3ccc(-c4ccco4)cc32)CC1` [Compound 138, 1-((5-(5-(difluoromethyl)-1,3,4-oxadiazole-2-yl)pyridine-2-yl)methyl)-5-(furan-2-yl)-3-(1-methylpiperidine-4-yl)-1,3-dihydro-2H-benzo[d]imidazole-2-one]: the IC50 at HDAC6 human recombinant was 19 nM; at HDAC1 it was above 10 µM.
For `CN1CCC(n2c(=O)n(Cc3ccc(-c4nnc(C(F)F)o4)cc3F)c3ccc(-c4cccnc4)cc32)CC1` [Compound 139, 1-(4-(5-(difluoromethyl)-1,3,4-oxadiazole-2-yl)-2-fluorobenzyl)-3-(1-methylpiperidine-4-yl)-5-(pyridine-3-yl)-1,3-dihydro-2H-benzo[d]imidazole-2-one] the same measures were 31 nM and above 10 µM.
In the case of `CN1CCC(n2c(=O)n(Cc3ccc(-c4nnc(C(F)F)o4)cc3F)c3ccc(-c4ccco4)cc32)CC1` [Compound 140, 1-(4-(5-(difluoromethyl)-1,3,4-oxadiazole-2-yl)-2-fluorobenzyl)-5-(furan-2-yl)-3-(1-methylpiperidine-4-yl)-1,3-dihydro-2H-benzo[d]imidazole-2-one], the IC50 at HDAC6 human recombinant is 54 nM; at HDAC1 it was above 10 µM.
With `CN1CCC(n2c(=O)n(Cc3ccc(-c4nnc(C(F)F)o4)cn3)c3cc(Br)ccc32)CC1` [Compound 141, 5-bromo-3-((5-(5-(difluoromethyl)-1,3,4-oxadiazole-2-yl)pyridine-2-yl)methyl)-1-(1-methylpiperidine-4-yl)-1,3-dihydro-2H-benzo[d]imidazole-2-one], the IC50 at HDAC6 human recombinant is 12 nM; at HDAC1 it was above 10 µM.
For the compound `Cn1c(=O)n(Cc2ccc(-c3nnc(C(F)F)o3)cn2)c2cc(F)ccc21` [Compound 142, 3-((5-(5-(difluoromethyl)-1,3,4-oxadiazole-2-yl)pyridine-2-yl)methyl)-5-fluoro-1-methy 1-1,3-dihydro-2H-benzo[d]imidazole-2-one], the IC50 is 18 nM at HDAC6 human recombinant and above 10 µM on HDAC1.
For `Cn1c(=O)n(Cc2ccc(-c3nnc(C(F)F)o3)cc2F)c2cc(F)ccc21` [Compound 143, 3-(4-(5-(difluoromethyl)-1,3,4-oxadiazole-2-yl)-2-fluorobenzyl)-5-fluoro-1-methyl-1,3-dihydro-2H-benzo[d]imidazole-2-one], in that order: 71 nM and above 10 µM.
For `Cn1c(=O)n(Cc2ccc(-c3nnc(C(F)F)o3)cc2)c2cc(F)ccc21` [Compound 144, 3-(4-(5-(difluoromethyl)-1,3,4-oxadiazole-2-yl)benzyl)-5-fluoro-1-methyl-1,3-dihydro-2H-benzo[d]imidazole-2-one] the same measures were 77 nM and above 10 µM.
Turning to `CN1CCC(n2c(=O)n(Cc3ccc(-c4nnc(C(F)F)o4)cn3)c3cc(-c4cccnc4)ccc32)CC1` [Compound 145, 3-((5-(5-(difluoromethyl)-1,3,4-oxadiazole-2-yl)pyridine-2-yl)methyl)-1-(1-methylpiperidine-4-yl)-5-(pyridine-3-yl)-1,3-dihydro-2H-benzo[d]imidazole-2-one], the IC50 on HDAC6 human recombinant is 315 nM; on HDAC1 it was above 10 µM.
For `Cc1ccc(-c2ccc3c(c2)n(Cc2ccc(-c4nnc(C(F)F)o4)cn2)c(=O)n3C2CCN(C)CC2)o1` [Compound 146, 3-((5-(5-(difluoromethyl)-1,3,4-oxadiazole-2-yl)pyridine-2-yl)methyl)-5-(5-methylfuran-2-yl)-1-(1-methylpiperidine-4-yl)-1,3-dihydro-2H-benzo[d]imidazole-2-one] the same measures were 130 nM and above 10 µM.
For `Cn1c(=O)n(Cc2ccc(-c3nnc(C(F)F)o3)cn2)c2cc(F)c(Br)cc21` [Compound 147, 5-bromo-1-((5-(5-(difluoromethyl)-1,3,4-oxadiazole-2-yl)pyridine-2-yl)methyl)-6-fluoro-3-methyl-1,3-dihydro-2H-benzo[d]imidazole-2-one] the same measures were 15 nM and above 10 µM.
For `Cn1c(=O)n(Cc2ccc(-c3nnc(C(F)F)o3)cc2F)c2cc(F)c(Br)cc21` [Compound 148, 5-bromo-1-(4-(5-(difluoromethyl)-1,3,4-oxadiazole-2-yl)-2-fluorobenzyl)-6-fluoro-3-methyl-1,3-dihydro-2H-benzo[d]imidazole-2-one] the same measures were 61 nM and above 10 µM.
Regarding `CN1CCC(n2c(=O)n(Cc3ccc(-c4nnc(C(F)F)o4)cn3)c3cc(F)c(Br)cc32)CC1` [Compound 149, 5-bromo-1-((5-(5-(difluoromethyl)-1,3,4-oxadiazole-2-yl)pyridine-2-yl)methyl)-6-fluoro-3-(1-methylpiperidine-4-yl)-1,3-dihydro-2H-benzo[d]imidazole-2-one], the IC50 on HDAC6 human recombinant is 40 nM; at HDAC1 it was above 10 µM.
For `CN1CCC(n2c(=O)n(Cc3ccc(-c4nnc(C(F)F)o4)cn3)c3cc(F)c(-c4ccoc4)cc32)CC1` [Compound 150, 1-((5-(5-(difluoromethyl)-1,3,4-oxadiazole-2-yl)pyridine-2-yl)methyl)-6-fluoro-5-(furan-3-yl)-3-(1-methylpiperidine-4-yl)-1,3-dihydro-2H-benzo[d]imidazole-2-one] the same measures were 43 nM and above 10 µM.
Consider `CN1CCC(n2c(=O)n(Cc3ccc(-c4nnc(C(F)F)o4)cn3)c3cc(F)c(-c4ccco4)cc32)CC1` [Compound 151, 1-((5-(5-(difluoromethyl)-1,3,4-oxadiazole-2-yl)pyridine-2-yl)methyl)-6-fluoro-5-(furan-2-yl)-3-(1-methylpiperidine-4-yl)-1,3-dihydro-2H-benzo[d]imidazole-2-one], for which the concentration for half-maximal inhibition (IC50) at HDAC6 human recombinant was 55 nM; at HDAC1, above 10 µM.
`CN1CCC(n2c(=O)n(Cc3ccc(-c4nnc(C(F)F)o4)cn3)c3cc(F)c(-c4ccccc4F)cc32)CC1` [Compound 152, 1-((5-(5-(difluoromethyl)-1,3,4-oxadiazole-2-yl)pyridine-2-yl)methyl)-6-fluoro-5-(2-fluorophenyl)-3-(1-methylpiperidine-4-yl)-1,3-dihydro-2H-benzo[d]imidazole-2-one]: the IC50 was 34 nM at HDAC6 human recombinant and above 10 µM at HDAC1.
For `CN1CCC(n2c(=O)n(Cc3ccc(-c4nnc(C(F)F)o4)cn3)c3cc(F)c(-c4ccncc4)cc32)CC1` [Compound 153, 1-((5-(5-(difluoromethyl)-1,3,4-oxadiazole-2-yl)pyridine-2-yl)methyl)-6-fluoro-3-(1-methylpiperidine-4-yl)-5-(pyridine-4-yl)-1,3-dihydro-2H-benzo[d]imidazole-2-one], in that order: 16 nM and above 10 µM.
In the case of `CN1CCC(n2c(=O)n(Cc3ccc(-c4nnc(C(F)F)o4)cn3)c3cc(F)c(-c4cccc(F)c4)cc32)CC1` [Compound 154, 1-((5-(5-(difluoromethyl)-1,3,4-oxadiazole-2-yl)pyridine-2-yl)methyl)-6-fluoro-5-(3-fluorophenyl)-3-(1-methylpiperidine-4-yl)-1,3-dihydro-2H-benzo[d]imidazole-2-one], the half-maximal inhibitory concentration (IC50) on HDAC6 human recombinant was 42 nM; on HDAC1, above 10 µM.
